Results from US11952328B2, “Selective ship inhibitors for treating disease” (THE RESEARCH FOUNDATION FOR THE STATE UNIVERSITY OF NEW YORK, priority 2018, dated 2024).

How the values were obtained:
CD8+ T cells = experiment: CD8 T cell activation (CD69) and degranulation (CD107a) after two-day in vivo treatment; design: species or system mice
Description: FIGS. 3B-3E show activation of NK cells and T cells following exposure to the SHIP1 inhibitor 3AC in vivo. NK cells from two-day 3AC- or vehicle-treated mice were stimulated by incubation on uncoated plates, on plates coated with anti-NK1.1, anti-NKp46, or anti-NKG2D antibody, or on uncoated plates but in the presence of PMA and ionomycin. Representative flow plots (FIG. 3B) and box and whisker plots (FIG. 3C) show the frequency of NK cell production of IFNγ determined by intracellular flow cytometry. […] Anti-CD107a (LAMP-1) PE antibody was added for the final 5 hours of incubation. Degranulation of CD8+ T cells was determined by analysis of CD107a expression by flow cytometry. NK cells are defined as NK1.1+CD3ε− and CD8+ T cells as NK1.1-CD3ε+CD8+CD4−. Graphs are representative of at least two independent experiments with at least four 3AC- and vehicle-treated mice per group (FIGS. 3B-3C) or pooled data from two independent experiments is shown (FIGS. 3D-3F). FIG. 3C (unstim: n=4, p=0.0962, Unpaired t test with Welch's correction. NK1.1: n=4, p=0.0038, Two-tailed student's T test. NKG2D: n=4, p=0.0450, Two-tailed student's T test. NKp46: n=4, p=0.0144, Two-tailed student's T test. PMA: p=0.2945, Two-tailed student's T test). FIG. 3D (n=8, p=0.0153, Unpaired T test with Welch's correction). FIG. 3E (n=8, p=0.0009, Two-tailed student's T test) FIG. 3F (n=9, p=0.0083, Two-tailed student's T test).
To determine if SHIP inhibitors are also capable of activating the other major type of cytotoxic lymphocyte the responsiveness of CD8 T cells following the same, short-term, 3AC treatment was examined.

[1] = tested on: MC-38 colon carcinoma cells; experiment: Subcutaneous MC-38 colon carcinoma model; format: in vivo, C57BL/6 mice
Description: (§1) FIG. 7A and FIG. 7B show CT26 (FIG. 7A) and MC-38 (FIG. 7B) viability following in vitro treatment with 3AC for 24 h at indicated doses. Relative viability is expressed as frequency compared to solvent only treated cells. Kill curve summarizes pooled data from three independent experiments using six replicate wells/concentration with mean±SEM indicated. BALB/C mice were challenged with subcutaneous injection of CT26 colon carcinoma cells in the right flank. Mice were treated with either 2 consecutive days of 3AC or vehicle control each week as in FIG. 4A. Tumor size at […] 28 days (FIG. 7C), and tumor weight on day 28 determined after dissection of tumor (FIG. 7E). […] C57BL/6 mice were challenged with subcutaneous injection of MC-38 colon carcinoma cells in the right flank. Mice were treated with either 2 consecutive days of SHIP inhibitor or vehicle control each week as in FIG. 4A. Tumor size at 14, 21 and 25 days (FIG. 7D), and tumor weight (FIG. 7F) on day 25 were determined after dissection of tumor. […] FIG. 7A (n=18 per group. One-way ANOVA with Dunnett's multiple comparisons. 0 μM vs. 20 μM Adjusted p value=0.0463. All other concentrations of SHIP inhibitor compared with solvent only N.S.). FIG. 7B (n=18 per group. One-way ANOVA with Dunnett's multiple comparisons. All concentrations of SHIP inhibitor compared with solvent only N.S.). FIGS. 7C-7F graphs represent data from one of two independent experiments. FIG. 7C (n=10. Day 14 p<0.0001, Unpaired t test with Welch's correction. Day 21 p<0.0001, two-tailed student's t-test. Day 28 p<0.0001, two-tailed Student's t-test). FIG. 7E (n=10. P<0.0001, two-tailed Student's t-test) FIG. 7D (n=10. Day 14 p=0.0005, two-tailed student's t-test. Day 21 p=0.0009, two-tailed Student's t-test. Day 25 p=0.0009, two-tailed student's t-test). FIG. 7F (n=10. P=0.0067, two-tailed student's t-test).
Colorectal cancer is the second leading cause of cancer mortality in the United States (Siegel, R. L. et al., Colorectal cancer statistics, 2017. CA Cancer J Clin. (2017)). […]

NK cell compartment = conditions: uninterrupted, extended-duration treatment, six days each week; Fernandes et al. 2015; cited from earlier work
CT26 = CT26 viability following in vitro treatment; format: cell-based, mice; conditions: in vitro 24 h; only 20 μM vs 0 μM adjusted p=0.0463, other concentrations N.S.
Description: as §1, with “FIGS. 7C-7F graphs represent data from one of two independent experiments. FIG. 7C (n=10. Day 14 p<0.0001, Unpaired t test with Welch's correction. Day 21 p<0.0001, two-tailed student's t-test. Day 28 p<0.0001, two-tailed Student's t-test). FIG. 7E (n=10. P<0.0001, two-tailed Student's t-test) FIG. 7D (n=10. Day 14 p=0.0005, two-tailed student's t-test. Day 21 p=0.0009, two-tailed Student's t-test. Day 25 p=0.0009, two-tailed student's t-test). FIG. 7F (n=10. P=0.0067, two-tailed student's t-test).” left out

[2] = splenic CD8+ T cells, two-day 3AC vs vehicle

## CC(C)CCC[C@@H](C)[C@H]1CC[C@H]2[C@@H]3CCC4C[C@H](N)CC[C@]4(C)[C@H]3CC[C@]12C (stereo partly drawn) [Compound 3AC, 3-α-aminocholestane]
CD8+ T cells; [2]
  percentage of activated CD8 T cells (CD69 expression): significantly increased
  surface expression of CD69 amongst CD8 T cells: increased
CD8+ T cells; splenic CD8 T cells, crosslinking of TcR and CD28 (anti-CD3, anti-CD28) overnight
  LAMP-1 (CD107a) expression of CD8 T cells (degranulation): increased frequency
[1]; day 25, vs vehicle
  tumor weight: significant reduction
[1]; two consecutive days each week, days 14, 21, 25, vs vehicle
  tumor size: significant reduction
[1]; vs vehicle
  histological analysis (H&E) of tumors: prominent zones of tumor cell death
NK cell compartment
  NK cell compartment function (acute rejection of MHC-I mismatched BM graft): disabled NK cell compartment
CT26
  CT26 viability (direct killing): resistant to direct killing
